According to article PMC7470102, “Synthesis, anticancer evaluation and molecular docking studies of new benzimidazole- 1,3,4-oxadiazole derivatives as human topoisomerase types I poison” (Journal of Enzyme Inhibition and Medicinal Chemistry, 2020):

Columns and labels:
[1] = test system: C6 cells; experiment: DNA synthesis inhibition assay (BrdU), C6; type: cell-based, rat; conditions: lower dose (IC50/2), 48 h vs 24 h incubation
Method: The BrdU cell proliferation method was performed to analyse the effects of the active compounds on proliferation of cancer cells. Cancer cells were seeded into the 96-well plates at a density of 1 × 10^4 cells. Compounds were added into the each well at three different concentrations (IC50/2, IC50 and 2xIC50) and the plates were incubated for 24 h. At the end of the incubation period, BrdU solution was added and cells were reincubated for 2 h at 37 °C. Anti-BrdU-POD ([…]) was added and the mixture was incubated for 90 min. Microplates were washed with PBS for three times. After adding substrate solution, the mixture was incubated for 15 min. OD of the wells were determined at 492 nm. Proliferation of control cells was assessed as 100% and growth inhibition % of cells, treated with test compounds and […] were calculated.
According to the MTT assay, compound 5n for A549 cell line; compounds 5a, 5d, 5e, 5o for MCF-7 cell line; compound 5k for C6 cell line; compound 5a for HepG2 cell line; compounds 5b, 5l and 5n for HeLa cell line were selected for the DNA synthesis inhibition assay. A549, C6, MCF-7, HepG2 and HeLa cells were incubated with three different concentrations (IC50/2, IC50, and […]) of the compounds for 24 and 48 h time periods. […] Doxorubicin was used as positive control.

[2] = test system: NIH3T3 (mouse embryo fibroblast cell line); experiment: MTT cytotoxicity assay, NIH3T3 healthy cells; type: cell-based; conditions: Mus musculus, read-out: IC50 against NIH3T3
Method: (§1) The anticancer activity of compounds 5a–5o were screened according to the MTT assays. The MTT assays were performed as previously described[32]^,[33]. Anticancer activity of final compounds was assessed against five different cancer cell lines A549 (lung carcinoma cell line), HeLa (cervical cell line), MCF-7 (human breast adenocarcinoma cell line), HepG2 (human liver carcinoma cell line) and C6 (rat glioma cell line) cell lines as well as NIH3T3 (mouse embryo fibroblast cell line). Doxorubicin and Hoechst 33342 were used as the reference drugs in the MTT assays. It is crucial that an anticancer agent affects the cancer cell line but having minimal or no side-effect on healthy cells. For this purpose, the cytotoxic effects of the active compounds on the NIH3T3 cell line were investigated (Table 2).

[3] = molecular target: T1, Topoisomerase I (Homo sapiens, UniProt P11387); experiment: DNA topoisomerase I assay (relaxation of supercoiled plasmid DNA, agarose gel); type: biochemical; conditions: agarose gel electrophoresis, camptothecin positive control, Figure 12
T1 construct: purchased TopoGen TG1018-2
T1 sequence (P11387 1-765): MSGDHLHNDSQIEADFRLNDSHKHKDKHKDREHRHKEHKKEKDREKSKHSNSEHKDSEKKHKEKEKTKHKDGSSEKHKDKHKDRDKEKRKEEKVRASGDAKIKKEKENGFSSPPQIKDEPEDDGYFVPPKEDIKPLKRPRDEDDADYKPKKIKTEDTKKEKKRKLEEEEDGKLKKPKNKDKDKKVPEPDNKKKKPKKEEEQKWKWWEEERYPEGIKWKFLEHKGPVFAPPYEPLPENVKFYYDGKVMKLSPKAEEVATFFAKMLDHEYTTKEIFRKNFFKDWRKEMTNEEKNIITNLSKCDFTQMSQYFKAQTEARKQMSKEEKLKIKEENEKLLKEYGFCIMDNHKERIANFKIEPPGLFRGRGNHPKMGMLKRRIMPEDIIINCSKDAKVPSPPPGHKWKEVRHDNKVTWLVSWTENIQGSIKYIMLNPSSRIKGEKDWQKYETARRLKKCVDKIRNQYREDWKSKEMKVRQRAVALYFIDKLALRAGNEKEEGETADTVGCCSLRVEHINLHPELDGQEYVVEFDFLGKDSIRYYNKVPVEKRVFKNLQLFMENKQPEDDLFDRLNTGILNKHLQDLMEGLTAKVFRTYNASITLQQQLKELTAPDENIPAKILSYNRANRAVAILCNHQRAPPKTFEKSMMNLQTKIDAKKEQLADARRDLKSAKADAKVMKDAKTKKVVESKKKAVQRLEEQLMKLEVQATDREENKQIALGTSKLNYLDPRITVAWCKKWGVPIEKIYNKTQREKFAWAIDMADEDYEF
Method: The topoisomerase I inhibition activities of final compounds were measured as relaxation of supercoiled plasmid DNA using agarose gel electrophoresis and camptothecin was used as a positive control. The assay was carried out in a final volume of 20 µl reaction volume containing 2 µl of 10xTGS Buffer, 6 µl water, 2 µl supercoiled plasmid DNA, 2 µl test compound, 2 µl of Top1, 2 ul 10% SDS, 2 µl proteinase K, 2 µl DNA loading dye. After incubation of reaction mixtures at 37 °C for 30 min, electrophoresis was done on a 1% agarose gel at a potential 50 V for 75 min using 1xTAE buffer.
To determine whether the DNA intercalation properties of compounds 5a, 5b, 5d, 5e, 5k, 5l, 5n and 5o might result in Topo I inhibition, agarose gel electrophores is assay was performed to evaluate the Topo I inhibitory activity of them via agarose-gel electrophoresis and CPT was used as the positive control. The TopoGEN Topoisomerase I Drug Screening Kit were optimised and implemented to accomplish this goal.
In a previous studies, it was said that the compounds poisoning topoisomerase caused the formation of nick bands in such gel appearances, while the formation of Supercoiled bands was said to be caused by catalytic inhibitors that bound to either DNA or enzyme[40]^,[41].

[4] = test system: HeLa (cervical cell line); experiment: MTT cytotoxicity assay, HeLa; type: cell-based; conditions: Homo sapiens, read-out: IC50 against HeLa
Method: as §1, with “assays.” for “assays. It is crucial that an anticancer agent affects the cancer cell line but having minimal or no side-effect on healthy cells. For this purpose, the cytotoxic effects of the active compounds on the NIH3T3 cell line were investigated (Table 2).”
(§2) The benzimidazole-1,3,4-oxadiazole derivatives (5a-5o) were tested their cytotoxic effects in vitro using five cancer cell line A549 (lung carcinoma cell line), HeLa (cervical cell line), MCF-7 (human breast adenocarcinoma cell line), HepG2 (human liver carcinoma cell line) and C6 (rat glioma cell line) cell lines as well as NIH3T3 (mouse embryo fibroblast cell line). Doxorubicin and Hoechst 33342 were used for this study as a reference drugs.

[5] = test system: HepG2 (human liver carcinoma cell line); experiment: MTT cytotoxicity assay, HepG2; type: cell-based; conditions: Homo sapiens, read-out: IC50 against HepG2
Method: as §1, with “assays.” for “assays. It is crucial that an anticancer agent affects the cancer cell line but having minimal or no side-effect on healthy cells. For this purpose, the cytotoxic effects of the active compounds on the NIH3T3 cell line were investigated (Table 2).”
as §2

[6] = test system: A549 (lung carcinoma cell line); experiment: MTT cytotoxicity assay, A549; type: cell-based; conditions: Homo sapiens, A549, MTT assay, read-out: IC50 against A549
Method: as §1, with “assays.” for “assays. It is crucial that an anticancer agent affects the cancer cell line but having minimal or no side-effect on healthy cells. For this purpose, the cytotoxic effects of the active compounds on the NIH3T3 cell line were investigated (Table 2).”
as §2

[7] = test system: C6 (rat glioma cell line); experiment: MTT cytotoxicity assay, C6; type: cell-based; conditions: Rattus norvegicus, read-out: IC50 against C6
Method: as §1, with “assays.” for “assays. It is crucial that an anticancer agent affects the cancer cell line but having minimal or no side-effect on healthy cells. For this purpose, the cytotoxic effects of the active compounds on the NIH3T3 cell line were investigated (Table 2).”
as §2

[8] = test system: C6 cell line; experiment: Flow cytometric analysis (Annexin V/PI), C6; type: cell-based, rat; conditions: at IC50 concentrations
Method: Death pathway of the carcinogenic cell lines was detected by Annexin V-FITC Apoptosis Detection Kit (BD, Pharmingen) as reported previously described. […] FCS Express software was used to display the percent of normal and apoptotic cells at different stages. […] The experiments were carried out in triplicates.
Annexin V/PI staining on tested cancer cells treated with the active compounds was performed to investigate induction of apoptosis. […] According to the MTT assay, compound 5n for A549 cell line; compounds 5a, 5d, 5e, 5o for MCF-7 cell line; compound 5k for C6 cell line; compound 5a for HepG2 cell line; compounds 5b, 5l and 5n for HeLa cell line were selected for the flow cytometric analysis. Furthermore, flow cytometry studies were performed for reference drug doxorubicin. Flow cytometric analysis diagrams of tested compounds and doxorubicin at IC50/2, IC50, and 2xIC50 concentrations on cancer cells were presented in Figures 7–11.

[9] = test system: MCF-7 (human breast adenocarcinoma cell line); experiment: MTT cytotoxicity assay, MCF-7; type: cell-based; conditions: Homo sapiens, MCF7, MCF-7 cell line, read-out: IC50 against MCF-7
Method: as §1, with “assays.” for “assays. It is crucial that an anticancer agent affects the cancer cell line but having minimal or no side-effect on healthy cells. For this purpose, the cytotoxic effects of the active compounds on the NIH3T3 cell line were investigated (Table 2).”
as §2

CCOc1ccc(-c2nc3ccc(-c4nnc(SCC(=O)N5CCN(C)CC5)o4)cc3[nH]2)cc1 [5k, 2-((5-(2-(4-Ethoxyphenyl)-1H-benzo[d]imidazol-6-yl)-1,3,4-oxadiazol-2-yl)thio)-1–(4-methyl-piperazin-1-yl)-ethane-1-on]
DNA synthesis inhibition at 48 h relative to 24 h [1]: eight times higher | IC50 [2]: 74.6 ± 3.63 µM | Topo I inhibition activity [3]: potent topo I inhibition activity | IC50 [4]: 11.2 ± 0.467 µM | IC50 [5]: ≥ 100 µM | IC50 [6]: 22.3 ± 1.05 µM | IC50 [7]: 3.2 ± 0.152 µM | percentage of apoptotic cells [8]: 12.3% | IC50 [9]: 38.7 ± 1.88 µM
